Measurements taken from US9199931B2, “Pyrrolidine derivatives” (UNIVERSITE CLAUDE BERNARD LYON I, priority 2012, dated 2015).
“Also recorded” adds a separate entry of the source.

Assays:
[1] = tested on: extracellular glutamate (Glu) and aspartate (Asp) levels, striatum; assay: in vivo intracerebral microdialysis: extracellular glutamate and aspartate levels in striatum; parameters: species or system rat (Wistar); settings: for effect on extracellular Glu and Asp levels: 1 mmol/L by reverse microdialysis, striatum, anesthetized rats; for effect of co-administration of CNQX on the compound's effects: compound at 1 mmol/L co-administered with CNQX, Asp levels are increased; for action on glutamate when the glutamate levels are high: rat brain, initial glutamate level high, notably greater than 10 μmol/L; for Effect on Glu end/or Asp: striatum of anesthetized rats, reverse microdialysis
Source text: One of the widespread methodological approaches, both in academic laboratories and in industrial laboratories, and used for following the extracellular concentrations of glutamate (Glu) and of aspartate (Asp) before, during and after administration of pharmacological agents targeting their receptors is intracerebral microdialysis. This type of test was therefore used, in order to track the in vivo effects of the molecules according to the invention as compared with those of kainic acid, for which the synthesized molecules are structural analogues (substituted pyrrolidines).
Concentric microdialysis probes with a regenerated cellulose membrane (Spectra/Por hollow fiber; molecular cut off 6,000 Da, 225 μm in external diameter, a length of 3 mm, Spectrum Medical Industries, Los Angeles, Calif., USA) and tubings in molten silica (40 μm i.d×105 μm o.d., Polymicro Technology, Phoenix, Ariz., USA) were manufactured according to a design already published (Bert et al 1996, [26]). They were perfused with a flow rate of 1 μl/min with artificial cerebrospinal fluid or CSF (145.0 mM NaCl; […]; 1.0 mM MgCl2; 1.2 mM CaCl2; 0.45 mM NaH2PO4; 1.55 mM Na2HPO4; pH 7.4) by means of a Harvard pump (Model 22, South Natick, Mass., USA).
The in vivo microdialysis experiments were conducted on male rats of the Wistar strain with an average weight of about 300 g, (provider: Charles River, L'Arbresle, France) anesthetized with urethane (a dose of 1.4 g/kg via an i.p, route, provider: Sigma-Aldrich, St. Louis, Mo., USA). The probes were implanted dorso lateral striatum according to the following stereotaxic coordinates relatively to the bregma: antero-posteriority 0 mm, laterality […], depth […] under the cortical surface. The dialysates (samples) were collected from the beginning of the 4th hour after implantation of the probe. The samples were taken every 5 minutes in PCR tubes of 200 μl (Axygene, Union City, Calif., USA) and immediately frozen at −20° C. The samples were analyzed subsequently in order to determine the glutamate and aspartate contents. The pharmacological agents and the compounds according to the invention were administered in situ by reverse microdialysis by changing the perfusion at the inlet of the probe of the CSF without any pharmacological agent to the one containing the pharmacological agent(s) (Bert et al., 2002 [27]; Parrot et al 2003 [28]).
CE analyses were carried out with a P/ACE MDQ system (Beckman-Coulter, Fullerton, Calif., USA) equipped with an external detector LIF ZETALIF (Picometrics, Toulouse, France). Detection was achieved by fluorescence at a wavelength of 442 nm and generated with a He—Cd laser Omnichrome (Chino, Calif., USA). The emission intensity was collected at 490 nm. Before analysis, the samples were derived with naphthalene-2,3-dicarboxaldehyde with cyanide ions as a nucleophilic agent (pH 8.7; borate buffer 500 mM). The separations were conducted in a capillary of molten silica with an internal diameter of […] and an outer diameter of 375 μm with a length of 63 cm, with a useful length of 52 cm (Polymicro Technology) by using the procedure entirely detailed and validated earlier (Sauvinet et al., 2003 [29] Bert et al., 2002 (271). The Glu and Asp concentrations measured in striatum samples were above detection limits and were determined by interpolation by means of standard ranges.
All the reagents of the neurochemical study (except for the compound according to the invention) were purchased from Sigma-Aldrich (St Louis, Mo., USA). The mother-solutions of the synthesized molecules, of the kainate (KA, agonist of the KA receptors for glutamate), CNQX, 6-cyano-7-nitroquinoxaline-2,3(1H,4H)-dione (CAS-No. 115066-14-3, antagonist of KA receptors), from Glu and Asp were aliquoted to 1 or 0.1 mM and stored at −30° C. After their administration, the tested pharmacological agents were diluted in artificial CSF. […]

[2] = inflow through in vitro model of the choroidal epithelium (blood/cerebrospinal fluid barrier); assay type: in vitro ADME; settings: rat; basolateral exposure at 150 μm for 60 minutes, 37° C.; read-out: penetration rate of the peripheral blood compartment towards the brain compartment
Method: A study was conducted with the BIP platform (Centre de Recherche en Neurosciences de Lyon, Lyons, France) for comparing the inflow of four compounds of interest through the cerebrospinal liquid/blood barrier. The study was carried out with an in vitro model of the choroidal epithelium restoring this interface. Choroidal cells were exposed by their basolateral pole to the compounds at a concentration of 150 μm for 60 minutes. The permeability of the cell monolayers to saccharose was analyzed in terms of these transfers, in order to detect possible toxicity of the compounds.
The epithelial cells are isolated from the choroidal plexus of a lateral ventricle taken on newly born rats as described earlier. The cells are sown on microporous supports (Transwell PC, pore size 0.4 μm, surface area […], diameter 6.5 mm), and cultivated in DMEM-F12 (1:1) supplemented with 10% FCS, 2 mM glutamine and 50 μg/ml gentamycin, as well as with various growth factors. The medium is renewed every two days until the day of experiment.
The transfer measurements were conducted under kinetic conditions (3 phases), with stirring (200 rpm), at 37° C., in a Ringer-Hepes buffer (RH). The volumes used in both compartments during the transfer are adjusted so as to minimize any hydrostatic pressure effect. The inserts are rinsed in RH before initiating the permeability study. For each compound, the transfer is carried out in parallel on three laminin inserts (without any cell) and three inserts with a cell monolayer.
Inflow measurements (from blood to the cerebrospinal fluid) were conducted during a kinetic study (20 min periods) for the four compounds of interest. Briefly, the compound of interest, diluted to 150 μm in RH is placed in the lower compartment of a multi-well cultivation plate, which reproduces the blood compartment. Transfer is initiated by placing a culture insert containing RH in the upper compartment, which corresponds to the cerebrospinal fluid. At regular intervals, an aliquot of the upper medium is taken and replaced with an equivalent volume of preheated RH at 37° C. […] The samples taken are analyzed by high performance liquid chromatography (HPLC) on an LC10 Shimadzu system chain (Duisburg, Germany), equipped with a spectrophotometric detector.
At the end of the transfer of the compounds of interest, [^14C]-saccharose is added as an aliquot into the upper compartment of the inserts. […] The media sampled in the wells and in the inserts at the end of the transfer of saccharose are analyzed by liquid scintillator counting in a β Canberra Packard TRI-GARB 1600TR counter. […]
The permeability coefficient of the cell monolayer Pe (in cm·min^−1) is calculated from the PS determined on laminin filters and filters with cells and by taking into account the exchange surface area. […]

[3] = biological target: CB1 (receptors of type 1 to endocannabinoids, CB-1) (Homo sapiens, UniProt P21554); assay: in vitro specific binding inhibition (radioligand, 60 receptors); settings: n = 2, read-out: % of inhibition of the control specific binding at 10 μM, CB1 towards its agonistic ligand
Method: In order to determine the target receptors of the compounds according to the invention, experiments of specific binding inhibition were conducted in vitro. Pharmacology in vitro: tests of specific bindings.
Sixty receptors were tested in the study according to standardized methods by using their specific radioligand as reported earlier.
The results may be expressed as a % of the specific control bond [(measured specific bond/control specific bond)×100] and as a % of inhibition of the specific control bond [100−(measured specific bond/control specific bond)×100] obtained in the presence of one of the two tested compounds (I.2 and I.4).
These experiments (Table 2 hereafter) have shown that the compounds I.2 and I.4 modify the specific binding of a control agonist of the receptors of type 1 to endocannabinoids (CB-1) (according to the test described in reference).

[4] = tested on: glutamate levels in the striatum; settings: ex vivo and in vivo preparations, refs [89-92]; cited from earlier work

Chain of CB1 (receptors of type 1 to endocannabinoids, CB-1) (P21554 whole entry): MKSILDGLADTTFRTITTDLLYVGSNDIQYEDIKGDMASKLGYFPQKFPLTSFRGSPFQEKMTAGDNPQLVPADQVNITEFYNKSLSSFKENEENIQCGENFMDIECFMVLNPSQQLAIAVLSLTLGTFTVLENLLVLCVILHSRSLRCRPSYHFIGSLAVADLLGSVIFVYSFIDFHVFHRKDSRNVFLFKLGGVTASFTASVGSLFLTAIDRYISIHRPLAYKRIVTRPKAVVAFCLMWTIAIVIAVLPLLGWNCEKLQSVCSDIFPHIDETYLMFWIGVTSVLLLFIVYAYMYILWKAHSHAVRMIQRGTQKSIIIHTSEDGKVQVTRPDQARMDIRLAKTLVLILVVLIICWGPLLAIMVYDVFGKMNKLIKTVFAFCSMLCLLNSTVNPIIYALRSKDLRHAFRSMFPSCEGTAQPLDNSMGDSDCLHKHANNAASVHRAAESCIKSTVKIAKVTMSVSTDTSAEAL

| Compound | effect on extracellular Glu and Asp levels [1] | Papp B→A at 60 min, 150 μm [2] [×10⁻⁶ cm/s] | effect of co-administration of CNQX on the compound's effects [1] | action on glutamate when the glutamate levels are high [1] | Pharmacological potentiality for modulating the Glu system ([1]; summary of preliminary results) | Effect on Glu end/or Asp ([1]; summary of preliminary results) | inhibition at 10 µM [3] [%] | Action through the KA receptors ([1]; summary of preliminary results, co-administration of CNQX (antagonist of KA receptors)) | melting point [°C] | effect on glutamate levels in the striatum [4] |
| --- | --- | --- | --- | --- | --- | --- | --- | --- | --- | --- |
| C=C(C)[C@H]1CN[C@H](C(=O)O)[C@H]1CC(=O)O [KA, kainate, reference compound] | affected |  |  |  |  |  |  |  |  |  |
| CNC(=O)[C@H](NC(C)=O)[C@@H]1CNC[C@@H]1O [Compound I.3, α-acetamido-(4-hydroxy-pyrrolidin-3-yl)-N-methylacetamide(αR,3S,4R)] | an effect similar to that of kainate | ≤ 5 | seems to partly attenuate its effects | inhibitory actions on the glutamate | yes | yes |  |  |  |  |
| N[C@@H](C(=O)O)[C@@H]1CNC[C@@H]1O [Compound I.2, (αR,3S,4R) α-amino-(4-hydroxy-pyrrolidin-3-yl)acetic acid] | a reduction in the Glu and Asp levels; also recorded: a reduction in the cerebral extracellular glutamate levels | ≤ 5 | seems to partly attenuate its effects | inhibitory actions on the glutamate | Yes | Yes | 29 | yes for Asp |  |  |
| CN[C@H](C(=O)O)[C@H]1CNC[C@H]1O (racemic) [Compound I.5, (3,4-cis).α-N-methylamino-(4-hydroxy-pyrrolidin-3-yl)acetic acid] |  |  |  |  |  |  |  |  | 192 |  |
| Cc1c(C(=O)NN2CCCCC2)nn(-c2ccc(Cl)cc2Cl)c1-c1ccc(Cl)cc1 [rimonabant] |  |  |  |  |  |  |  |  |  | cause an increase or do not affect the extracellular glutamate levels |
| CNC(=O)[C@@H](N)[C@H]1CNC[C@H]1O [Compound I.4, .-amino-(4-hydroxy-pyrrolidin-3-yl)-N-methylacetamide(αS,3R,4S)] | a reduction in the Glu and Asp levels; also recorded: a reduction in the cerebral extracellular glutamate levels | ≤ 5 | seems to partly attenuate its effects | inhibitory actions on the glutamate | yes | yes | 29 |  |  |  |
| N[C@H](C(=O)O)[C@H]1CNC[C@H]1O [Compound I.1, (αS,3R,4S) α-amino-(4-hydroxy-pyrrolidin-3-yl)acetic acid] | effects similar to KA | ≤ 5 |  | inhibitory actions on the glutamate | Yes | Yes |  |  |  |  |
| Cc1c(C(=O)c2cccc3ccccc23)c2cccc3c2n1[C@H](CN1CCOCC1)CO3 [WIN 55, 212-2] |  |  |  |  |  |  |  |  |  | induces a reduction in the glutamate levels |
